Data published in the supplement of paper PMC10307832.

Tests used:
Test in all cases: relative viability (nuclei count vs DMSO), 5 days (fraction); higher = more cells survive
Masitinib + OSI-027 = compound: Cc1ccc(NC(=O)c2ccc(CN3CCN(C)CC3)cc2)cc1Nc1nc(-c2cccnc2)cs1 [Masitinib] + COc1cccc2cc(-c3nc([C@H]4CC[C@H](C(=O)O)CC4)n4ncnc(N)c34)[nH]c12 [OSI-027] (partner 0.5 µM)
Method in brief: (§1)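 Lung cancer cell lines, seeded in 1536-well plates, were treated the following day by pin tool with a single drug or with five library-drug doses (not always all listed) in √10 steps on top of a fixed anchor-drug dose. Cells were fixed and nuclei stained in one step after 5 days, and nuclei were counted. Relative viability is the nuclei count for treated wells divided by that for vehicle wells, reported as medians of duplicate plates.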

Masitinib + Linsitinib = compound: Cc1ccc(NC(=O)c2ccc(CN3CCN(C)CC3)cc2)cc1Nc1nc(-c2cccnc2)cs1 [Masitinib] + C[C@]1(O)C[C@@H](c2nc(-c3ccc4ccc(-c5ccccc5)nc4c3)c3c(N)nccn32)C1 [Linsitinib] (partner 1 µM)
Method in brief: as §1

Masitinib + Alpelisib = compound: Cc1ccc(NC(=O)c2ccc(CN3CCN(C)CC3)cc2)cc1Nc1nc(-c2cccnc2)cs1 [Masitinib] + Cc1nc(NC(=O)N2CCC[C@H]2C(N)=O)sc1-c1ccnc(C(C)(C)C(F)(F)F)c1 [Alpelisib] (partner 2 µM)
Method in brief: as §1

Masitinib + Vorinostat = compound: Cc1ccc(NC(=O)c2ccc(CN3CCN(C)CC3)cc2)cc1Nc1nc(-c2cccnc2)cs1 [Masitinib] + O=C(CCCCCCC(=O)Nc1ccccc1)NO [Vorinostat] (partner 1 µM)
Method in brief: as §1

| Cell Line | relative viability (Masitinib + OSI-027; first compound 0.01 µM) | relative viability (Masitinib + OSI-027; first compound 0.03162 µM) | relative viability (Masitinib + OSI-027; first compound 0.1 µM) | relative viability (Masitinib + OSI-027; first compound 0.3162 µM) | relative viability (Masitinib + OSI-027; first compound 1 µM) | relative viability (Masitinib + Linsitinib; first compound 0.01 µM) | relative viability (Masitinib + Linsitinib; first compound 0.03162 µM) | relative viability (Masitinib + Linsitinib; first compound 0.1 µM) | relative viability (Masitinib + Linsitinib; first compound 0.3162 µM) | relative viability (Masitinib + Linsitinib; first compound 1 µM) | relative viability (Masitinib + Alpelisib; first compound 0.01 µM) | relative viability (Masitinib + Alpelisib; first compound 0.03162 µM) | relative viability (Masitinib + Alpelisib; first compound 0.1 µM) | relative viability (Masitinib + Alpelisib; first compound 0.3162 µM) | relative viability (Masitinib + Alpelisib; first compound 1 µM) | relative viability (Masitinib + Vorinostat; first compound 0.01 µM) | relative viability (Masitinib + Vorinostat; first compound 0.03162 µM) | relative viability (Masitinib + Vorinostat; first compound 0.1 µM) | relative viability (Masitinib + Vorinostat; first compound 0.3162 µM) | relative viability (Masitinib + Vorinostat; first compound 1 µM) |
| --- | --- | --- | --- | --- | --- | --- | --- | --- | --- | --- | --- | --- | --- | --- | --- | --- | --- | --- | --- | --- |
| PC-14 | 0.887 | 0.794 | 0.822 | 0.875 | 0.826 | 0.918 | 0.904 | 1 | 0.976 | 0.999 | 0.915 | 0.865 | 1.11 | 1.01 | 0.846 | 0.716 | 0.79 | 0.767 | 0.691 | 0.865 |
| HARA | – | 0.44 | 0.521 | 0.384 | 0.315 | 0.894 | 1.02 | 1.08 | 0.917 | 1.06 | 0.798 | 0.621 | 0.809 | 0.727 | 0.822 | 0.498 | 0.539 | 0.57 | 0.521 | 0.485 |
| NCI-H2126 | 0.697 | 0.727 | 0.653 | 0.602 | 0.657 | 0.707 | 0.656 | 0.785 | 0.691 | 0.659 | 0.802 | 0.766 | 0.832 | 0.661 | 0.712 | 0.736 | 0.764 | 0.8 | 0.798 | 0.79 |
| NCI-H1915 | – | 0.606 | – | 0.578 | 0.546 | – | 1.15 | 1.09 | 0.974 | 1.03 | – | 1.06 | 1.07 | 1.04 | 1.07 | – | 0.488 | – | 0.505 | 0.541 |
| NCI-H661 | 0.672 | 0.648 | 0.727 | 0.643 | 0.528 | 0.653 | 0.569 | 0.577 | 0.584 | 0.428 | 0.748 | 0.577 | 0.623 | 0.384 | 0.47 | 0.785 | 0.801 | 0.774 | 0.805 | 0.821 |
| COR-L23 | 0.893 | 0.737 | 0.776 | 0.751 | 0.738 | 1.11 | 0.923 | 1 | 1.07 | 1.05 | 0.862 | 0.81 | 0.861 | 0.848 | 0.852 | 0.532 | 0.411 | 0.435 | 0.46 | 0.373 |
| COR-L 105 | 0.682 | 0.705 | 0.764 | 0.613 | 0.533 | 0.993 | 0.973 | 0.921 | 0.753 | 0.881 | 1 | 1.02 | 1.05 | 0.879 | 1.15 | 0.741 | 1.09 | 0.971 | 0.78 | 0.841 |
| LK-2 | 0.194 | 0.214 | 0.198 | 0.201 | 0.243 | 0.511 | 0.573 | 0.618 | 0.649 | 0.812 | 1.28 | 0.609 | 1.38 | 1.15 | 1.3 | 0.246 | 0.265 | 0.393 | 0.225 | 0.369 |
| 201T | 0.792 | 0.534 | 0.745 | – | 0.729 | 0.881 | 0.977 | 1.01 | 0.851 | 1.01 | 0.866 | 1.01 | 0.978 | 0.877 | 0.989 | 0.74 | 1.05 | 0.774 | 0.78 | 0.914 |
| HCC-44 | 0.526 | 0.497 | 0.531 | 0.392 | 0.59 | 0.567 | 0.487 | 0.648 | 0.568 | 0.666 | 0.748 | 0.752 | 0.88 | 0.69 | 0.834 | 0.914 | 1.1 | 1.06 | 1.06 | 1.03 |
| NCI-H647 | 0.685 | 0.651 | 0.699 | 0.579 | 0.602 | 1.03 | 1.19 | 1.03 | 0.849 | 1.26 | 1.08 | 1.26 | 1.19 | 1.28 | 1.1 | 0.503 | 0.533 | 0.592 | 0.693 | 0.619 |
| H3255 | 0.588 | 0.652 | 0.617 | 0.504 | 0.538 | 0.679 | 0.844 | 0.837 | 0.977 | 0.936 | – | 0.84 | 0.766 | 0.49 | 0.675 | 0.9 | 0.9 | 0.544 | 0.584 | 0.761 |
| NCI-H650 | 0.538 | 0.427 | 0.536 | 0.344 | 0.524 | 0.796 | 0.752 | 0.896 | 0.981 | 0.806 | 1.14 | 1.03 | 1.17 | 1.31 | 1.08 | 0.458 | 0.527 | 0.415 | 0.484 | 0.404 |
| NCI-H2085 | 0.627 | 0.666 | 0.918 | 0.47 | 0.604 | 0.787 | 0.914 | 0.955 | 1.01 | 0.726 | 0.838 | 1 | 1.09 | 0.935 | 0.985 | 0.7 | 0.829 | 0.67 | 0.701 | 0.822 |
| NCI-H2347 | 0.403 | 0.531 | 0.447 | 0.354 | 0.467 | 0.758 | 0.911 | 0.867 | 0.948 | 1.09 | 0.981 | 1.14 | 1.01 | 1.13 | 1.05 | 0.601 | 0.543 | 0.647 | 0.651 | 0.624 |
| NCI-H1944 | – | 0.423 | – | 0.352 | 0.382 | – | 1.14 | 0.794 | 1.12 | 1.17 | – | 0.78 | 0.925 | 0.699 | 0.84 | – | 0.528 | – | 0.547 | 0.5 |
| NCI-H596 | 0.87 | 0.678 | 0.73 | 0.717 | 0.697 | 1.21 | 0.98 | 1.05 | 1.14 | 1.05 | 0.341 | 0.462 | 0.625 | 0.397 | 0.435 | 0.702 | 0.546 | 0.545 | 0.533 | 0.588 |
| NCI-H520 | 0.267 | 0.265 | 0.261 | 0.237 | 0.228 | 1.12 | – | 1.15 | 0.97 | 0.915 | 0.914 | – | 0.966 | 0.826 | 1.02 | 0.796 | 0.703 | 0.755 | 0.932 | 0.687 |
| EKVX | – | 0.533 | 0.566 | 0.673 | 0.599 | – | 0.87 | 0.876 | 0.881 | 1.06 | – | 0.779 | 0.786 | 0.706 | 0.944 | 0.626 | 0.653 | 0.643 | 0.678 | 0.696 |
| SK-MES-1 | 0.615 | 0.668 | 0.684 | 0.52 | 0.651 | 1.11 | 1.18 | 1.16 | 1.03 | 0.987 | 1.07 | 0.946 | 1.08 | 0.921 | 0.732 | 0.876 | 1.15 | 1.03 | 0.984 | 1.07 |
| EPLC-272H | 0.257 | 0.274 | 0.281 | 0.315 | 0.286 | 1.08 | 1.26 | 1.19 | 1.18 | 1.01 | 0.999 | 0.902 | 1.12 | 1.07 | 0.898 | 0.4 | – | 0.392 | 0.464 | 0.425 |
| NCI-H1395 | 0.647 | 0.609 | 0.71 | 0.563 | 0.623 | 1.05 | 1.09 | 1.09 | 0.959 | 1.02 | 1.12 | 1.01 | 1.1 | 1.16 | 1.09 | 0.765 | 0.613 | 0.787 | 0.774 | 0.637 |
| NCI-H2228 | 0.633 | 0.661 | 0.638 | 0.807 | 0.528 | 0.703 | 0.58 | 0.609 | 0.807 | 0.52 | 0.897 | 0.708 | 0.835 | 0.685 | 0.844 | 0.604 | 0.59 | 0.693 | 0.593 | 0.665 |
| NCI-H2023 | 0.387 | 0.412 | 0.592 | 0.271 | 0.27 | 0.597 | 0.681 | 0.703 | 0.613 | 0.597 | 0.581 | 0.62 | 0.6 | 0.518 | 0.548 | 0.493 | 0.583 | 0.66 | 0.611 | 0.721 |
| NCI-H3122 | – | 1.38 | – | 0.969 | 1.09 | 1.01 | 1.01 | 1.06 | 0.828 | 1.1 | 0.87 | 0.758 | 0.785 | 0.899 | 0.821 | 0.844 | 0.982 | 1.15 | 1.14 | 1.05 |
| HCC-78 | 0.36 | 0.337 | 0.364 | 0.337 | 0.335 | 0.417 | 0.423 | 0.55 | 0.557 | 0.486 | 0.342 | 0.188 | 0.438 | 0.306 | 0.332 | 0.485 | 0.435 | 0.468 | 0.47 | 0.388 |
| LOU-NH91 | 0.702 | 0.667 | 0.723 | 0.58 | 0.655 | 0.909 | 0.893 | 0.972 | 0.928 | 0.911 | 0.711 | 0.662 | 0.819 | 0.683 | 0.713 | 0.84 | 0.795 | 0.884 | 0.793 | 0.883 |
| NCI-H322M | 0.64 | 0.531 | 0.605 | 0.551 | 0.514 | 0.975 | 0.736 | 0.91 | 0.681 | 0.912 | 0.782 | 0.778 | 0.932 | 0.763 | 0.793 | 0.831 | 0.821 | 0.881 | 0.91 | 0.882 |
